Experiment [1] deals with T1, human plasminogen (Homo sapiens, UniProt P00747).
T1 construct: gene PLG; commercial (BioVision), 1 microgram coated on polystyrene plate
The experiment in a line: competitive solid-phase binding assay (ELISA), displacement of GAPDH. The settings on record: competition with 125 ng His-tagged bacterial GAPDH; EACA 1.25 to 10 mM; lysine analog.

Experiment [2] concerns the target T2, LGp40 (GAPDH of L. gasseri) (Lactobacillus gasseri, UniProt A0A1V3Y2M1).
T2 construct: gene gap; His6-tagged, pET21b, E. coli BL21(DE3), Ni-NTA then Q column; 37 kDa; tetramer through crystal symmetry
The experiment in a line: X-ray crystallography, […] A. The settings on record: NAD-binding site, Asp38 hydrogen bonds; crystals at pH 6.5.

Experiment [3] deals with LGp40, His-tagged recombinant glyceraldehyde-3-phosphate dehydrogenase (GAPDH) of Lactobacillus gasseri (Lactobacillus gasseri (BCRC14619)). Nature of the experiment: crystal structure; X-ray, 1.88 A, space group I4(1)22; one LGp40 copy in the asymmetric unit, tetramer through crystal symmetry; crystals from 0.1 M sodium cacodylate pH 6.5, 16% w/v PEG 4000, 25 C.

Three compounds from publication PMC9520948, “Moonlighting glyceraldehyde-3-phosphate dehydrogenase (GAPDH) protein of Lactobacillus gasseri attenuates allergic asthma via immunometabolic change in macrophages” (Journal of Biomedical Science, 2022) can be followed below.

T1 sequence (P00747 20-810): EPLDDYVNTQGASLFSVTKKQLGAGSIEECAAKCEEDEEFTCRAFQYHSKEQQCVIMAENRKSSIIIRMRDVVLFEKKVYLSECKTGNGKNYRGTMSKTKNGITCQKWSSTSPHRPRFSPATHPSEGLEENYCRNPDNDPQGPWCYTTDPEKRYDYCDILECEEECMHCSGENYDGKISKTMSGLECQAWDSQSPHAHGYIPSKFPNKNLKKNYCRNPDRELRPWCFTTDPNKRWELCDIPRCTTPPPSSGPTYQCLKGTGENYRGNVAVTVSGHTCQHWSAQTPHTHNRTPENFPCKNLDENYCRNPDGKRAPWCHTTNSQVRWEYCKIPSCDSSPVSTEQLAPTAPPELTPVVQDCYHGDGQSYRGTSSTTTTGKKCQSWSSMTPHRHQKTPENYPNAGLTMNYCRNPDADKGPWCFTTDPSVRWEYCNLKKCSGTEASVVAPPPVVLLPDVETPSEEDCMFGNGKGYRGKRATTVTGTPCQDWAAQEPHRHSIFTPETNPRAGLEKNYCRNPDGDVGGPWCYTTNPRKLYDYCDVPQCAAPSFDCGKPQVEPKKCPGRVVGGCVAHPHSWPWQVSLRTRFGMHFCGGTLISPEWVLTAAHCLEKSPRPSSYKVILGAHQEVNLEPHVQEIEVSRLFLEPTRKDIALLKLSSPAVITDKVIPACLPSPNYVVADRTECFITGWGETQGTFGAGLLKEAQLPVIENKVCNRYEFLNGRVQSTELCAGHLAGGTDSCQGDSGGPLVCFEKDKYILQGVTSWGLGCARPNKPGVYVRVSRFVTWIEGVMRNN

With `NCCCCCC(=O)O` [EACA], the “competitive solid-phase binding assay (ELISA), displacement of GAPDH” value in experiment [1] was “a competitive binding assay using EACA, a lysine analog”. For `NC(=O)c1ccc[n+]([C@@H]2O[C@H](COP(=O)(O)OP(=O)(O)OC[C@H]3O[C@@H](n4cnc5c(N)ncnc54)[C@H](O)[C@@H]3O)[C@@H](O)[C@H]2O)c1` [NAD^+], the “X-ray crystallography, 1.88 A” value in experiment [2] is listed as “contributes two hydrogen-bond interactions with NAD^+ to provide stronger binding forces”. The term stoichiometry N denotes the number of molecules, sites or subunits per partner or assembly. With “LGp40, His-tagged recombinant glyceraldehyde-3-phosphate dehydrogenase (GAPDH) of Lactobacillus gasseri (enzyme)”, the stoichiometry N in experiment [3] was found to be 4.
